This test deals with T1, FPRL-1 (Homo sapiens, UniProt P25090).
T1 construct: expressed in transfected cells
T1 sequence (P25090 1-351): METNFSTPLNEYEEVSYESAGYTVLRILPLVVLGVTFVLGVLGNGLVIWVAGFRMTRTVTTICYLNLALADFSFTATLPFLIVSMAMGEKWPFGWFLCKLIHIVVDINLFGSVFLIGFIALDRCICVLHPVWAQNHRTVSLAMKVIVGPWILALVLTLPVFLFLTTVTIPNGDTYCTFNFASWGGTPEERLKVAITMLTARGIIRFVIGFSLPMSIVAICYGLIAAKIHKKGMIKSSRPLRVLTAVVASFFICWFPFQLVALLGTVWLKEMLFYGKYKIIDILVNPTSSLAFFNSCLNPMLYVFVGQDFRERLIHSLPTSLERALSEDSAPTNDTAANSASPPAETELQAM
As to the kind of experiment: compound-induced calcium activity on FLIPR Tetra in CHO-Gα16 cells stably expressing FPRL1. Type of test: cell-based. The following applies: for FPRL-1 Ga16-CHO (Rel. eff.): relative efficacy; for pEC50: tested 0.61 to 10,000 nM, read-out: FPRL-1 Ga16-CHO EC50. An outline of the steps: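 CHO-Gα16 cells stably expressing FPRL1, plated at 18,000 cells/well the day before, were read for compound-induced calcium response on FLIPR Tetra.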

Structures are written as SMILES. pEC50: −log10 of the molar value.

For orientation: pEC50 means the EC50 on a negative log10 scale, so that one unit is a factor of ten. In the case of `CC(C)C[C@H](NC(=O)Nc1ccc(Br)cc1)C(=O)N[C@H](C(=O)O)C(C)C` [Compound 44, (2S)-2-{[(2S)-2-{[(4-bromophenyl)carbamoyl]amino}-4-methylpentanoyl]amino}-3-methylbutanoic acid], the “FPRL-1 Ga16-CHO (Rel. eff.)” value is reported as “(1.13)” and the pEC50 was 8.74.
In the same order, the values of `CC(C)C[C@H](NC(=O)Nc1ccc(Br)cc1F)C(=O)N[C@@H](C)C(=O)OC(C)(C)C` [Compound 38, tert-butyl(2S)-2-{[(2S)-2-{[(4-bromo-2-fluorophenyl)carbamoyl]amino}-4-methylpentanoyl]amino}propanoate] are “(1.00)” and 6.76.
Taken in the same sequence, the figures for `CSc1ccc(NC(=O)N[C@@H](CC(C)C)C(=O)NCC(=O)OC(C)(C)C)cc1` [Compound 68, tert-butyl {[(2S)-4-methyl-2-({[4-(methylsulfanyl)phenyl]carbamoyl}amino)pentanoyl]amino}acetate] were “(0.98)” and 6.94.
Taken in the same sequence, the figures for `CC(C)C[C@H](NC(=O)Nc1ccc(Br)cc1)C(=O)NCCO` [Compound 26, (2S)-2-{[(4-bromophenyl)carbamoyl]amino}-N-(2-hydroxyethyl)-4-methylpentanamide] were “(0.92)” and 7.96.
Take `CC[C@H](C)[C@H](NC(=O)Nc1ccc(Br)cc1)C(=O)NCCO` [Compound 14, (2S,3S)-2-{[(4-bromophenyl)carbamoyl]amino}-N-(2-hydroxyethyl)-3-methylpentanamide]: the “FPRL-1 Ga16-CHO (Rel. eff.)” value is reported as “(1.00)” and the pEC50 was 7.62.
Taken in the same sequence, the figures for `CC(C)(C)OC(=O)CNC(=O)[C@H](Cc1c[nH]c2ccccc12)NC(=O)Nc1ccc(Br)cc1` (stereo in doubt) [Compound 90, tert-butyl {[2-{[(4-bromophenyl)carbamoyl]amino}-3-(1H-indol-3-yl)propanoyl]amino}acetate] were “(1.03)” and 6.52.
In the same order, the values of `CC(C)C[C@H](NC(=O)Nc1ccc(Br)cc1F)C(=O)N[C@@H](C)C(N)=O` [Compound 40, (2S)-N-[(1S)-2-amino-1-methyl-2-oxoethyl]-2-{[(4-bromo-2-fluorophenyl)carbamoyl]amino}-4-methylpentanamide] are “(1.05)” and 7.51.
Taken in the same sequence, the figures for `CS(=O)(=O)CC[C@H](NC(=O)Nc1ccc(Br)cc1)C(=O)NCC(=O)O` [Compound 83, {[(2S)-2-{[(4-bromophenyl)carbamoyl]amino}-4-(methylsulfonyl)butanoyl]amino}acetic acid] were “(1.01)” and 6.61.
As for `CCC[C@H](NC(=O)Nc1ccc(Br)cc1)C(=O)NCCO` [Compound 20, (2S)-2-{[(4-bromophenyl)carbamoyl]amino}-N-(2-hydroxyethyl)pentanamid], the “FPRL-1 Ga16-CHO (Rel. eff.)” value is “(0.92)” and the pEC50 is 7.42.
Taken in the same sequence, the figures for `CSc1ccc(NC(=O)N[C@@H](CC(C)C)C(=O)NCC(=O)O)cc1` [Compound 70, {[(2S)-4-methyl-2-({[4-(methylsulfanyl)phenyl]carbamoyl}amino)pentanoyl]amino}acetic acid] were “(1.05)” and 8.53.
Taken in the same sequence, the figures for `CC(C)C[C@@H](NC(=O)Nc1ccc(Br)cc1)C(=O)NCC(=O)OC(C)(C)C` [Compound 66, tert-butyl {[(2R)-2-{[(4-bromophenyl)carbamoyl]amino}-4-methylpentanoyl]amino}acetate] were “(0.92)” and 5.44.
Taken in the same sequence, the figures for `CCC[C@H](NC(=O)Nc1ccc(Br)cc1)C(=O)NCC(=O)OC(C)(C)C` [Compound 18, tert-butyl {[(2S)-2-{[(4-bromophenyl)carbamoyl]amino}-pentanoyl]amino}acetate] were “(0.95)” and 7.51.
`CC(C)C[C@H](NC(=O)Nc1ccc(Br)cc1F)C(=O)NCC(=O)O` [Compound 34, {[(2S)-2-{[(4-bromo-2-fluorophenyl)carbamoyl]amino}-4-methylpentanoyl]amino}acetic acid]: the “FPRL-1 Ga16-CHO (Rel. eff.)” value is “(1.10)” and the pEC50 is 8.44.
In the same order, the values of `CC(=O)CNC(=O)[C@H](Cc1ccccc1)NC(=O)Nc1ccc(Br)cc1F` [Compound 17, (2S)-2-{[(4-bromo-2-fluorophenyl)carbamoyl]amino}-N-(2-oxopropyl)-3-phenylpropanamide] are “(0.94)” and 7.92.
In the case of `CC(C)C[C@H](NC(=O)Nc1ccc(Br)cc1)C(=O)N[C@H](C(=O)O)c1ccccc1` [Compound 52, (2S)-{[(2S)-2-{[(4-bromophenyl)carbamoyl]amino}-4-methylpentanoyl]amino}(phenyl)ethanoic acid], the “FPRL-1 Ga16-CHO (Rel. eff.)” value is “(1.08)” and the pEC50 was 8.04.
In the same order, the values of `CCC[C@H](NC(=O)[C@H](CC(C)C)NC(=O)Nc1ccc(Br)cc1)C(N)=O` [Compound 53, (2S)-N-[(2S)-1-amino-1-oxopentan-2-yl]-2-{[(4-bromophenyl)carbamoyl]amino}-4-methylpentanamide] are “(1.03)” and 8.19.
In the same order, the values of `CC[C@@H](C)[C@@H](NC(=O)Nc1ccc(Br)cc1)C(=O)NCC(=O)O` [Compound 65, {[(2R,3R)-2-{[(4-bromophenyl)carbamoyl]amino}-3-methylpentanoyl]amino}acetic acid] are “(0.45)” and 4.71.
Taken in the same sequence, the figures for `CC(C)C[C@H](NC(=O)Nc1ccc(C(F)(F)F)cc1)C(=O)NCC(=O)O` [Compound 63, {[(2S)-4-methyl-2-({[4-(trifluoromethyl)phenyl]carbamoyl}amino)pentanoyl]amino}acetic acid] were “(0.99)” and 8.74.
`CC(C)C[C@@H](NC(=O)Nc1ccc(Br)cc1F)C(=O)NCC(=O)O` [{[(2R)-2-{[(4-bromo-2-fluorophenyl)carbamoyl]amino}-4-methylpentanoyl]amino}acetic acid]: the “FPRL-1 Ga16-CHO (Rel. eff.)” value is on record as “(0.87)” and the negative logarithm of the EC50 (pEC50) is 5.83.

The values above are taken from patent publication US10172832B2, “Amide derivatives of N-urea substituted amino acids as formyl peptide receptor like-1 (FPRL-1) receptor modulators” (Allergan, Inc., priority 2011, dated 2019).
